In patent publication US20100035848A1, “THERAPY FOR DISORDERS OF THE PROXIMAL DIGESTIVE TRACT” (priority 2008, published 2010):
Where “and” joins values, the source holds several entries; their conditions need not be identical. Identical values can stand only once.

What was measured:
gastric PGE2 synthesis = assay: Acute indomethacin-induced gastric toxicity in rats: gastric PGE2 synthesis; type: in vivo, rat; conditions: indomethacin 20 mg/kg p.o.
Method: A study was conducted to determine whether GL1001 would inhibit acute NSAID (indomethacin)-induced gastric toxicity in a rat model (Wallace et al. (1998) Gastroenterol. 115:101-109). Several modes of treatment with GL1001 or vehicle were employed, which included administration via drinking water, oral administration and subcutaneous administration as shown in Table 4. Irrespective of the route of drug or vehicle administration, male Wistar rats were deprived of food for 16 h prior to oral administration of 20 mg/kg indomethacin (Sigma) or vehicle (5% w/v sodium bicarbonate; 1 ml/kg). Three hours later the rats were sacrificed and the severity of gastric damage was blindly scored. This involved measurement of the lengths (in mm) of all hemorrhagic erosions and summing these to give a “gastric damage score” for each stomach. Samples of the stomach were taken for measurement of prostaglandin E2 (PGE2) synthesis as described by Wallace et al. (1998), supra, and myeloperoxidase activity as described by Souza et al. (2003) Am. J. Physiol. 285:[…]-61. Myeloperoxidase is an enzyme found in all cells of mycloid origin, but particularly enriched within neutrophils. It is therefore used as a biochemical marker of granulocyte infiltration into tissue. Each group consisted of 6 rats. As a negative control, one group received vehicle pretreatments (in the drinking water and by oral gavage) and then received vehicle instead of indomethacin. […] [table] In the experiments where GL1001 (or vehicle) was added to drinking water, the rats were provided with the modified drinking water for 2 days prior to administration of indomethacin (or vehicle). This included the period when the rats were deprived of food. GL1001 was prepared in 0.1M citrate buffer before being added to the drinking water. Based on average water consumption by rats, this was aimed at providing a daily dose of GL1100 of 1200 mg/kg (water consumption was monitored for several days prior to initiation of the study). Oral or subcutaneous administration of GL1001 (or vehicle) was performed 30 minutes prior to administration of indomethacin. Data are expressed as mean±SEM. When two groups of data were compared, a Student's t-test was used. When more than two groups of data were compared, a one-way analysis of variance followed by the Newman-Keuls test was used. An associated probability of less than 5% was considered statistically significant.

[1] = tested on: diclofenac-induced gastric damage; assay: Acute diclofenac-induced gastric toxicity in rats: gastric damage score; type: in vivo, rat; conditions: Group C: GL1001 90 mg/kg oral gavage 30 min before diclofenac 50 mg/kg oral, 3 h; vehicle-diclofenac Group B 17.80 ± 5.08; p<0.02
Method: Male Wistar rats were deprived of food but not water for 16 hours prior to oral administration of GL1001 90 mg/kg, incubated for 30 minutes and then given oral diclofenac 50 mg/kg. Each group consisted of 6 rats. As a negative control, one group received vehicle pretreatment, and then received vehicle instead of diclofenac. A positive control group received PGE2 100 μg/kg orally, 30 minutes prior to administration of diclofenac. All treatments were administered by oral gavage.
Three hours after diclofenac treatment, all animals were sacrificed and stomachs were removed and imaged to determine the severity of gastric damage. Additionally, stomach tissue samples were taken to assess disease activity and pharmacodynamic effects. Gastric damage scores were determined from photographic images (Ma & Wallace (2003) Am. J. Physiol. Gastrointest. Liver Physiol. 279; 341-346). Removed stomachs were opened along the greater curvature, pinned out on a wax block, and photographed along a 25 mm ruler reference with a digital 35 mm camera. The lesion area was then determined using enlarged images and computer software (www.scioncorp.co/pages/scion_image_windows.htm) that allows superimposed drawing of the perimeter of a wound and calculation of the area based on the ruler reference. Stomach samples (excluding forestomach) were used for measurements of PGE2 concentration, MPO activity and ACE2 activity. PRE2 determinations are used in this study as a hiomarker of diclofenac effect since its mechanism of action involves inhibition of cyclooxygenase (COX-2 and COX-1) enzymes which in turn results in inhibition of PGE2 synthesis. Concentration of PGE2 from stomach tissue samples was performed as described by Souza et al. (2003), supra, and quantification was obtained by LC-MS. MTO, an enzyme found in abundance in granulocytes, is used as a biochemical marker of tissue inflammation. When tissues undergo inflammatory processes, granulocytes are recruited to the site of inflammation and infiltrate the affected tissue giving rise to increase MPO activity (Souza et al. (2003), supra). Last, the extent of inhibition of ACE2 activity was determined to establish whether GL1001 was effective in inhibiting its ACE2 target in stomach tissues. The ACE2 activity assay is similar to the method of Vickers et al. (2002) J. Biol. Chem. 277:14838-14843, wherein purified recombinant ACE2 (100 pM) and a quenched fluorescent substrate (100-150 μM APK (7-methoxycoumarin-4-yl)acetyl-Ala-Pro-Lys (2,4-dinitrophenyl)) are used in end-point fluorescence reactions (excitation 320 nm, emission 405 nm). For stomach ACE2 measurements, tissues were homogenized in the presence of a general protease inhibitor (PMSF) and specific ACE inhibitors. […]
Data are expressed as means with standard errors. […]

## CC(C)C[C@H](N[C@@H](Cc1cncn1Cc1cc(Cl)cc(Cl)c1)C(=O)O)C(=O)O [GL1001, (S,S)-2-[1-carboxy-2-[3-(3,5-dichlorobenzyl)-3H-imidazol-4-yl]-ethylamino]-4-methylpentanoic acid]
Gastric PGE2 synthesis; Group A: GL1001 in drinking water, vehicle Group B 3.83 ± 0.98
  Gastric PGE2 synthesis: 5.31 ± 1.54 ng/mg
Gastric PGE2 synthesis; Group C: GL1001 p.o. and in drinking water, vehicle Group D 3.07 ± 0.55
  Gastric PGE2 synthesis: 2.37 ± 0.51 ng/mg
Gastric PGE2 synthesis; Group F: GL1001 s.c. and in drinking water, vehicle Group G 3.60 ± 0.32
  Gastric PGE2 synthesis: 3.57 ± 0.59 ng/mg
Gastric PGE2 synthesis; Group H: GL1001 p.o., vehicle Group I 6.08 ± 1.00
  Gastric PGE2 synthesis: 4.44 ± 0.40 ng/mg
[1]
  Gastric damage score: 2.6 and 2.63 ± 0.87
